According to PMC8121805, “Discovery of first-in-class inhibitors of ASH1L histone methyltransferase with anti-leukemic activity” (Nature Communications, 2021):
Several values for one entry are separate records, joined by “and”; a condition that tells them apart may be missing. Equal values may be shown once.

What was measured:
Format in all cases: cell-based, human
MOLM13 cells = assay: MTT cell viability assay; conditions: MTT, 7 days
Method: (§1) FBS and 1% penicillin/streptomycin. […] Media was changed on day 3 or 4 and compounds were resupplied. […] Cell suspensions (100 μL) were transferred to the 96-well plates for each sample in quadruplicate at the time of media change. At day 7, 10 µL of MTT reagent (M6494, Molecular Probes™) was added to each well of the 96 well plate and incubated at 37 °C for 4 h. The formazan was then solubilized by adding 100 µL acidified 10% SDS solution and incubated at 37 °C overnight. Plates were read for absorbance at 570 nm using a PHERAstar BMG microplate reader. The experiments were performed two times in quadruplicates with calculation of mean and SD for each condition. Data were analyzed in Prism 8.0.0 to obtain GI50 values.
(§2) Supplementary Figure 7. […] (a)
(§3) Titration curves from the MTT cell viability assay performed after 4, 7, and 11 (or 10) days of
(§4) Titration curves from the MTT cell viability assay performed after 7 days of treatment of KOPN8 ,
(§5) MOLM13 and MV4;11 cell lines harboring MLL1 translocation (MLL1-r) or K562 cell line (non-
(§6) Representative graphs are shown
(§7) from two independent MTT experiments performed for each cell line.

MV4;11 cells [1] = assay: MTT cell viability assay; conditions: MTT, 7 days
Method: as §1, §2, §3, §4, §5, §6, §7

KOPN8 cells [2] = assay: Flow cytometry of CD11B expression (differentiation); conditions: 7 days
Method: (§8) In addition, 1 × 10^5 cells per sample were stained with Zombie Aqua™ dye (1:100 dilution) for 15 min using the Zombie Aqua™ Fixable Viability Kit (Zombie Aqua™ Fixable Viability Kit, Biolegend®) […] and then for 30 min with an anti-CD11B-PE antibody (982606, ICRF44, Biolegend®) or anti-CD11B-Pacific Blue (101224, BD BioLegend) antibody at 1:50 dilution, according to the No-wash Sequential Staining Protocol described by the manufacturer (BioLegend, Zombie Aqua Fixable Viability Kit). Cells were washed twice with 500 µL PBS containing 1% FBS and resuspended in 200 µL PBS with 1% FBS.

MV4;11 cells [3] = assay: as above; conditions: for MV4;11 % CD11B+ cells: 7 days
Method: as §8

KOPN8 cells [4] = assay: Annexin V apoptosis assay (flow cytometry); conditions: 7 days
[5] = test system: MLL leukemia cells (MV4;11, MOLM13, KOPN8, RS4;11); assay: MTT cell viability assay, MLL leukemia cells as a group
Method: Human leukemia cells K562, MV4;11 and RS4;11 (purchased from ATCC) and KOPN8, MOLM13 (purchased from DSMZ) were cultured in RPMI 1640 (Invitrogen) supplemented with 10% heat inactivated (h.i.) FBS and 1% penicillin/streptomycin (Invitrogen). SET2 cells (purchased from DSMZ) were cultured in RPMI 1640 supplemented with 20% h.i. FBS and 1% penicillin/streptomycin. Cells were plated at 1 × 10^5 to 2 × 10^5 cells/mL depending on cell line and treated with 0.25% DMSO or varying concentrations of compounds and incubated at 37 °C, 5% CO2 incubator for 7 days. Media was changed on day 3 or 4 and compounds were resupplied. […] Cell suspensions (100 μL) were transferred to the 96-well plates for each sample in quadruplicate at the time of media change. At day 7, 10 µL of MTT reagent (M6494, Molecular Probes™) was added to each well of the 96 well plate and incubated at 37 °C for 4 h. The formazan was then solubilized by adding 100 µL acidified 10% SDS solution and incubated at 37 °C overnight. Plates were read for absorbance at 570 nm using a PHERAstar BMG microplate reader. The experiments were performed two times in quadruplicates with calculation of mean and SD for each condition. Data were analyzed in Prism 8.0.0 to obtain GI50 values.
Supplementary Figure 4. Cell viability assay for AS-6 in MLL leukemia cell lines. Titration curves from the MTT cell viability assay performed after 7 days of treatment of human MLL1- […]
replicates. Representative graphs are shown from two independent MTT experiments performed […]
as §2
Titration curves from the MTT cell viability assay performed after 4, 7, and 11 (or 10) days of […]
Titration curves from the MTT cell viability assay performed after 7 days of treatment of KOPN8 , MOLM13 and MV4;11 cell lines harboring MLL1 translocation (MLL1-r) or K562 cell line (non- […]
Representative graphs are shown from two independent MTT experiments performed for each cell line. GI50 values correspond to […]

| SMILES | % activity MOLM-13 (MOLM13 cells; log[compound] -4.92082) | % activity MOLM-13 (MOLM13 cells; log[compound] -5.22185) | % activity MOLM-13 (MOLM13 cells; log[compound] -5.52288) | % activity MOLM-13 (MOLM13 cells; log[compound] -5.82391) | % activity MOLM-13 (MOLM13 cells; log[compound] -6.12494) | % activity MOLM-13 (MOLM13 cells; log[compound] -6.42597) | % activity MV4;11 (MV4;11 cells [1]; log[compound] -4.92082) | % activity MV4;11 (MV4;11 cells [1]; log[compound] -5.22185) | % activity MV4;11 (MV4;11 cells [1]; log[compound] -5.52288) | % activity MV4;11 (MV4;11 cells [1]; log[compound] -5.82391) | % activity MV4;11 (MV4;11 cells [1]; log[compound] -6.12494) | % activity MV4;11 (MV4;11 cells [1]; log[compound] -6.42597) | KOPN8 % CD11B+ cells (KOPN8 cells [2]; 2 uM) | KOPN8 % CD11B+ cells (KOPN8 cells [2]; 4 uM) | MV4;11 % CD11B+ cells (MV4;11 cells [3]; 6 uM) | differentiation in MLL leukemia cells (MV4;11 cells [3]; MV4;11 and KOPN8) | also measured |
| --- | --- | --- | --- | --- | --- | --- | --- | --- | --- | --- | --- | --- | --- | --- | --- | --- | --- |
| CN1CC(C(=O)NCc2ccc3c(-c4cccc(C(N)=S)c4)cn(C4CCN(S(=O)(=O)C(F)(F)F)CC4)c3c2)C1 [AS-99] | 3.13% and 3.054% and 2.978% | 1.145% and 1.069% and 1.222% | 67.0357% and 69.5553% and 72.2275% and 71.6931% | 99.1792% and 96.2016% and 97.7286% and 103.76% | 111.472% and 117.274% and 111.243% and 116.205% | 98.5684% and 93.0712% and 98.6448% and 96.736% | 1.588% and 2.029% | 0.6174% and 0.7056% and 0.9702% | 22.9327% and 24.6086% and 18.5226% and 19.2282% | 65.4465% and 63.065% and 69.151% and 68.269% | 88.9085% and 99.8456% and 101.963% and 98.4344% | 97.7288% and 98.9636% and 100.639% and 102.668% | 7.78% and 8.76% and 7.98% | 24.5% and 25.6% | 35.3% and 55.8% and 53.8% | induced differentiation | GI50 (MOLM13 cells; Homo sapiens, MOLM-13, 168 h, MOLM13 (MLL1-r)): 3600 ± 300 nM; GI50 (MV4;11 cells [1]; Homo sapiens, 168 h, MV4;11 (MLL1-r)): 1800 ± 200 nM; KOPN8 % CD11B+ cells (KOPN8 cells [2]; 1 uM): 5.69% and 3.82% and 3.42%; KOPN8 % CD11B+ cells (KOPN8 cells [2]; 3 uM): 12.9% and 10.3% and 9.53%; MV4;11 % CD11B+ cells (MV4;11 cells [3]; 3 uM): 3.77% and 4.48% and 6.27%; increased expression of the CD11B differentiation marker (MV4;11 cells [3]; MV4;11 and KOPN8): up to 50%; KOPN8 % Annexin V/PI+ cells (KOPN8 cells [4]; 1 uM): 4.46% and 5.06% and 4.65%; KOPN8 % Annexin V/PI+ cells (KOPN8 cells [4]; 2 uM): 6.92% and 8.33% and 6.49%; KOPN8 % Annexin V/PI+ cells (KOPN8 cells [4]; 3 uM): 6.23% and 7.5% and 8.51%; KOPN8 % Annexin V/PI+ cells (KOPN8 cells [4]; 4 uM): 31.1% and 33%; GI50 ([5]; Homo sapiens, MLL leukemia cells): 1800 to 3600 nM |
| CN1CC(C(=O)NCc2ccc3c(-c4cccc(C(N)=O)c4)cn(C4CCN(S(=O)(=O)C(F)(F)F)CC4)c3c2)C1 [AS-nc] | 79.465% and 80.5109% and 111.082% and 96.078% | 91.4119% and 88.8777% and 88.5559% and 94.107% | 100.261% and 95.3942% and 100.744% and 98.5318% | 98.572% and 96.1183% and 100.945% and 90.7281% | 105.41% and 99.4972% and 101.227% and 102.474% | 103.801% and 99.1352% and 97.8479% and 99.2156% | 33.9271% and 38.4523% and 37.682% and 37.2006% | 75.4242% and 68.4439% and 74.2207% and 76.0501% | 93.14% and 102.624% and 98.3873% and 102.19% | 95.1619% and 88.5666% and 92.2253% and 96.7986% | 101.179% and 95.4026% and 92.466% and 99.4464% | 105.753% and 96.7024% and 99.7834% and 97.7615% | 0.42% and 0.43% and 0.48% | 0.64% and 0.72% and 0.67% | 1.1% and 1.04% and 1.27% | not observed | KOPN8 % CD11B+ cells (KOPN8 cells [2]; 6 uM): 0.89% and 0.7% and 0.72%; MV4;11 % CD11B+ cells (MV4;11 cells [3]; 2 uM): 1.31% and 1.08% and 1.06%; MV4;11 % CD11B+ cells (MV4;11 cells [3]; 4 uM): 0.67% and 0.84% and 0.66%; KOPN8 % Annexin V(+) cells (KOPN8 cells [4]; 2 uM): 6.32% and 5.25% and 5.31%; KOPN8 % Annexin V(+) cells (KOPN8 cells [4]; 4 uM): 7.36% and 6.41% and 6.28%; KOPN8 % Annexin V(+) cells (KOPN8 cells [4]; 6 uM): 7.96% and 6.03% and 6.25%; effect on MLL leukemia cells (viability) ([5]; 7 days): no or much weaker effects |
